According to patent publication US7626031B2, “Substituted 3-(diarylmethylene)indolin-2-ones and methods of their use” (Symphony Evolution, Inc., priority 2002, dated 2009):

Experiments:
c-Kit kinase = c-Kit kinase (Homo sapiens, UniProt P10721); test: c-Kit AlphaScreen kinase assay; assay type: biochemical
Protocol: (§1) Kinase activity and compound inhibition are investigated using one or more assay formats. The ATP concentrations for each assay are selected to be close to the Michaelis-Menten constant (KM) for each individual kinase. Dose-response experiments are performed at 10 different inhibitor concentrations in a 384-well plate format. […] Exemplary kinase assays are described below. KDR Assay
c-Kit biochemical activity was assessed using AlphaScreen™ (Perkin Elmer) technology, described above. Test compounds, ATP, biotinylated poly(Glu, Tyr) and c-Kit kinase were combined in a volume of 20 μL in a 384-well white, medium binding microtiter plate (Greiner). Reaction mixtures were incubated for 1 hr at ambient temperature. Reactions were quenched by addition of 10 uL of […] AlphaScreen bead suspension containing 75 mM Hepes, pH 7.4, 300 mM NaCl, 120 mM EDTA, 0.3% BSA and 0.03% Tween-20. After 16 hr incubation at ambient temperature plates were read using an AlphaQuest reader (Perkin Elmer).

EGFR = EGFR (Homo sapiens, UniProt P00533); test: Kinase assay, EGFR (33P-ATP incorporation or luciferase-coupled ATP consumption); assay type: biochemical
Outline: (§2)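 Two formats used: luciferase/luciferin chemiluminescence of ATP consumed with pEY, or radiometric 33P transfer to plate-bound MBP or pEY read by scintillation.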

Flt3 = target: T1, Flt3 (Homo sapiens, UniProt P36888); test: Kinase assay, Flt3; assay type: biochemical
T1 sequence (P36888 27-993): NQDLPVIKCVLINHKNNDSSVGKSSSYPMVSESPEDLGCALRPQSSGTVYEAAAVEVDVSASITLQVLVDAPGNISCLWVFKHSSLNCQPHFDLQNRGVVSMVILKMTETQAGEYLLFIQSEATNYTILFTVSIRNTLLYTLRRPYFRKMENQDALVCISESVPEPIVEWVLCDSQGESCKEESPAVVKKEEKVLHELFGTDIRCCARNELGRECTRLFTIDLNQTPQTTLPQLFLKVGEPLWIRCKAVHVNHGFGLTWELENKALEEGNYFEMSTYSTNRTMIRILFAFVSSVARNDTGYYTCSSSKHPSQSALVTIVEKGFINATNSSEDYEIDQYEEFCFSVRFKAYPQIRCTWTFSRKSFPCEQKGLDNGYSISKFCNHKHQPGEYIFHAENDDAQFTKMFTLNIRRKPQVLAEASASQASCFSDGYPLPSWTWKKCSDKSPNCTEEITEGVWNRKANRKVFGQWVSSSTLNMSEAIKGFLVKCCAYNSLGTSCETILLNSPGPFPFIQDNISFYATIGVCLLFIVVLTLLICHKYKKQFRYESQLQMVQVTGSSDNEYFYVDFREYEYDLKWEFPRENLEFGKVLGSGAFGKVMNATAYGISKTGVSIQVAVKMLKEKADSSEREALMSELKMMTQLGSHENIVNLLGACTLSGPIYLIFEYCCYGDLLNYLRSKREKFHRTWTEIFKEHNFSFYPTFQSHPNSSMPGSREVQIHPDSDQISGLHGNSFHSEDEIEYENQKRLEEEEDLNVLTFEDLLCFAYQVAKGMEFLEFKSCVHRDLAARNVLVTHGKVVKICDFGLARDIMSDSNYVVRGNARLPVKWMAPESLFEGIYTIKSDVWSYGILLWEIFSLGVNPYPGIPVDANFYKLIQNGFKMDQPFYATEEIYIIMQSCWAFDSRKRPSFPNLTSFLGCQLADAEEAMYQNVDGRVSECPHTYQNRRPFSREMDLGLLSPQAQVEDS
Protocol: as §1

ALK = ALK (Homo sapiens, UniProt Q9UM73); test: Kinase assay, ALK (33P-ATP incorporation or luciferase-coupled ATP consumption); assay type: biochemical
Protocol: Kinase assays were performed by measurement of incorporation of γ-^33P ATP into immobilized myelin basic protein (MBP). […] Plates were washed 3× with 100 μl TBS. […] Compound dilutions were performed in DMSO and added to assay wells to a final DMSO concentration of 1%. Each data point was measured in duplicate, and at least two duplicate assays were performed for each individual compound determination. Enzyme was added to final concentrations of 10 nM or 20 nM, for example. A mixture of unlabeled ATP and γ-^33P ATP was added to start the reaction (2×10^6 cpm of γ-^33P ATP per well (3000 Ci/mmole) and either 10 μM or 30 μM unlabeled ATP, typically. The reactions were carried out for 1 hour at room temperature with shaking. Plates were washed 7× with TBS, followed by the addition of 50 μl/well scintillation fluid (Wallac). Plates were read using a Wallac Trilux counter. This is only one format of such assays, various other formats are possible, as known to one of ordinary skill in the art.
Tyrosine kinase activity is determined by 1) measurement of kinase-dependent ATP consumption by in the presence of a generic substrate such as, polyglutamic acid, tyrosine, 4:1 (pEY), by luciferase/luciferin-mediated chemiluminescence or; 2) incorporation of radioactive phosphate derived from ^33P-ATP into a generic substrate which has been adsorbed onto the well surface of polystyrene microtiter plates. Phosphorylated substrate products are quantified by scintillation spectrometry.
as §1

Fyn = Fyn (Homo sapiens, UniProt P06241); test: Kinase assay, Fyn; assay type: biochemical
Protocol: as §1

IRK = IRK (Homo sapiens, UniProt P06213); test: Kinase assay, IRK; assay type: biochemical
Protocol: as §1

EphA2 = EphA2 (Homo sapiens, UniProt P29317); test: Kinase assay, EphA2 (33P-ATP incorporation or luciferase-coupled ATP consumption); assay type: biochemical
Outline: as §2

FGFR1 = FGFR1 (Homo sapiens, UniProt P11362); test: Kinase assay, FGFR1 (33P-ATP incorporation or luciferase-coupled ATP consumption); assay type: biochemical
Outline: as §2

PDGFR alpha = PDGFR alpha (Homo sapiens, UniProt P16234); test: Kinase assay, PDGFR alpha (33P-ATP incorporation or luciferase-coupled ATP consumption); assay type: biochemical; settings: read-out: PDGF-R-A IC50
Outline: as §2

[1] = target: T2, KDR (baculovirus expressed human KDR kinase domain D807-V1356) (Homo sapiens, UniProt P35968); test: biochemical
T2 construct: human KDR kinase domain D807-V1356; host or cells: baculovirus expression system
Outline: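 Baculovirus human KDR kinase domain (D807–V1356) with ATP near its KM; 10-point dose-response, 4 h at ambient temperature. Activity taken as percent ATP remaining, detected by luciferase–luciferin chemiluminescence.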

T2 sequence (P35968 807-1356): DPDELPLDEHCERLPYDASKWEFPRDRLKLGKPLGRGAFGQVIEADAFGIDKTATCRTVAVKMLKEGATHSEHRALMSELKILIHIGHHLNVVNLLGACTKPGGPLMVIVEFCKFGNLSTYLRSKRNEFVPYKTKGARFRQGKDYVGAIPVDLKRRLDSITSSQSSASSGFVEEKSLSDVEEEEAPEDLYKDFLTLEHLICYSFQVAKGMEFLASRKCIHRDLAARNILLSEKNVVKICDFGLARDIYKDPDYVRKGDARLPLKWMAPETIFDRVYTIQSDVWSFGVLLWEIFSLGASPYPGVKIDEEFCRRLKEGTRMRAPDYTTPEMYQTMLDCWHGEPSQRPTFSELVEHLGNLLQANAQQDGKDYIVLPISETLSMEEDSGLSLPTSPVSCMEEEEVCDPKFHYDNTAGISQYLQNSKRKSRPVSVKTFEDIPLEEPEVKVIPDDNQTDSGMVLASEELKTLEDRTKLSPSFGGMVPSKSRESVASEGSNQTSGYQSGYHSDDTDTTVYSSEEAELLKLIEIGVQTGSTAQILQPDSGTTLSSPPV
EphA2, sequence (P29317 24-976, species assumed): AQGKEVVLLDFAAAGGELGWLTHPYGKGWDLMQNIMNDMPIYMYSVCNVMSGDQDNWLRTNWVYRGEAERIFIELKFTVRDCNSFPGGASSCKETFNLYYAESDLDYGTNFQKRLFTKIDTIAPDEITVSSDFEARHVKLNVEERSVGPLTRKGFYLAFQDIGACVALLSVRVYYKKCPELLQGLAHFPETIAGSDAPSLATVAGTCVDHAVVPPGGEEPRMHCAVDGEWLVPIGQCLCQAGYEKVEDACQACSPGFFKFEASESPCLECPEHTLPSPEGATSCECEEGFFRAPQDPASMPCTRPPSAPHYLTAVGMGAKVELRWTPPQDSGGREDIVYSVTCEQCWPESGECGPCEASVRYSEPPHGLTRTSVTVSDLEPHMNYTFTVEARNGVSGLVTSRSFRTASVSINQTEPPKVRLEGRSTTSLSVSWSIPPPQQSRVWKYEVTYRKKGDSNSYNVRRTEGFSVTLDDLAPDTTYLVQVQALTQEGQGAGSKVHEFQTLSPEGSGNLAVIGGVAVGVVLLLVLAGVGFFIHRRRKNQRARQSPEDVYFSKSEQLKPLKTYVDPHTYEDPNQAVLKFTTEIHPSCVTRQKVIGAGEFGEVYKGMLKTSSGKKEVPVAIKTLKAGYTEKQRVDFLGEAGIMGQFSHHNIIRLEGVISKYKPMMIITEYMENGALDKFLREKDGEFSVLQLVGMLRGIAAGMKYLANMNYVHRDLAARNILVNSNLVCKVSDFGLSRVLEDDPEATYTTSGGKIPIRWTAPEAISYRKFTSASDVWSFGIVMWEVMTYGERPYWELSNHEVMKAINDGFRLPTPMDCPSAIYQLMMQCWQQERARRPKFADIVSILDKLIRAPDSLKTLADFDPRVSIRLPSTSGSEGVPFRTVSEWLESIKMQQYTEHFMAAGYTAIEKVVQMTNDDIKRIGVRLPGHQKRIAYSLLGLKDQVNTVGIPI
Fyn, sequence (P06241 whole entry, species assumed): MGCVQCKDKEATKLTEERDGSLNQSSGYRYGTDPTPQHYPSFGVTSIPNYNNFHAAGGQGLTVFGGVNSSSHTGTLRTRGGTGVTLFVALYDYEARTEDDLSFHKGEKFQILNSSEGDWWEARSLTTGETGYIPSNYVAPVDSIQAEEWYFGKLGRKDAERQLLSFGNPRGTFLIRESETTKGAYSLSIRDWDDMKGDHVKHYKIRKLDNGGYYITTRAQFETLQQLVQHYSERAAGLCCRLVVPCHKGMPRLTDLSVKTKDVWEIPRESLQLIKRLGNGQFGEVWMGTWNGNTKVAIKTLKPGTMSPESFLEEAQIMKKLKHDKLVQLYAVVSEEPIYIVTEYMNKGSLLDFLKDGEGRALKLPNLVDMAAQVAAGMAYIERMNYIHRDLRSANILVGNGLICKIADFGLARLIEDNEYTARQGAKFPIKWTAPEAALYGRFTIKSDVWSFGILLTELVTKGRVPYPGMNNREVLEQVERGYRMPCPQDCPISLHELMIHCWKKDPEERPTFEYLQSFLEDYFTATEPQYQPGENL
EGFR, sequence (P00533 25-1210, species assumed): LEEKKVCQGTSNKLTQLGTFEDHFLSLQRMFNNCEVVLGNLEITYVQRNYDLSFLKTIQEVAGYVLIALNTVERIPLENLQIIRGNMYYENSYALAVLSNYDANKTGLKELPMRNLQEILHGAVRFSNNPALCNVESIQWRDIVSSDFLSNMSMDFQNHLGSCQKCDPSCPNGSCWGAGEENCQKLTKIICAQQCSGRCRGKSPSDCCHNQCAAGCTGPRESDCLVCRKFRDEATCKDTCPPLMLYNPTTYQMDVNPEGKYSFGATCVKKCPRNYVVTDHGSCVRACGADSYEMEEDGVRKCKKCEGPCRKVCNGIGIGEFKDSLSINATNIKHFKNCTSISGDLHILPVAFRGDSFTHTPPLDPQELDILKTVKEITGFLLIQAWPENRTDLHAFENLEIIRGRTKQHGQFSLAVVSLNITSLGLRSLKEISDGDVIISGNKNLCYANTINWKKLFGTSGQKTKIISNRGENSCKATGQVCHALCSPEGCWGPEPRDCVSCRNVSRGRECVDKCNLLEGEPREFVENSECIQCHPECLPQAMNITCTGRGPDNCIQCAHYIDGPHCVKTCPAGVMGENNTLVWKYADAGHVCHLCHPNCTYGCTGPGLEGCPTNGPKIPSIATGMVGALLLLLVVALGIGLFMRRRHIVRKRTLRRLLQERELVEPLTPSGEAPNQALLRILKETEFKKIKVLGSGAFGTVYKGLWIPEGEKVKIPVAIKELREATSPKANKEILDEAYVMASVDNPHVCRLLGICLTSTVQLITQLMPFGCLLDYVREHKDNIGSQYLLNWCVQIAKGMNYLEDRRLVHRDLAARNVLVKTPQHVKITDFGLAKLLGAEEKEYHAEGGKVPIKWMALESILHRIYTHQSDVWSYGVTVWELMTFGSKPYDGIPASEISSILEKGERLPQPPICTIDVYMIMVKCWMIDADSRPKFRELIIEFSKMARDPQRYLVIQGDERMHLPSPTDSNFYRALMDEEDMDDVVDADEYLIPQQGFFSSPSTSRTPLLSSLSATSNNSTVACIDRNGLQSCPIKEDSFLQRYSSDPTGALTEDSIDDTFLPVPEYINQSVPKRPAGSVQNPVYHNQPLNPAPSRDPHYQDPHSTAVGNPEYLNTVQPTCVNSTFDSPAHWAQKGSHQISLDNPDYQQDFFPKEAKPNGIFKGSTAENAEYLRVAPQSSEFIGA
ALK, sequence (Q9UM73 19-1620, species assumed): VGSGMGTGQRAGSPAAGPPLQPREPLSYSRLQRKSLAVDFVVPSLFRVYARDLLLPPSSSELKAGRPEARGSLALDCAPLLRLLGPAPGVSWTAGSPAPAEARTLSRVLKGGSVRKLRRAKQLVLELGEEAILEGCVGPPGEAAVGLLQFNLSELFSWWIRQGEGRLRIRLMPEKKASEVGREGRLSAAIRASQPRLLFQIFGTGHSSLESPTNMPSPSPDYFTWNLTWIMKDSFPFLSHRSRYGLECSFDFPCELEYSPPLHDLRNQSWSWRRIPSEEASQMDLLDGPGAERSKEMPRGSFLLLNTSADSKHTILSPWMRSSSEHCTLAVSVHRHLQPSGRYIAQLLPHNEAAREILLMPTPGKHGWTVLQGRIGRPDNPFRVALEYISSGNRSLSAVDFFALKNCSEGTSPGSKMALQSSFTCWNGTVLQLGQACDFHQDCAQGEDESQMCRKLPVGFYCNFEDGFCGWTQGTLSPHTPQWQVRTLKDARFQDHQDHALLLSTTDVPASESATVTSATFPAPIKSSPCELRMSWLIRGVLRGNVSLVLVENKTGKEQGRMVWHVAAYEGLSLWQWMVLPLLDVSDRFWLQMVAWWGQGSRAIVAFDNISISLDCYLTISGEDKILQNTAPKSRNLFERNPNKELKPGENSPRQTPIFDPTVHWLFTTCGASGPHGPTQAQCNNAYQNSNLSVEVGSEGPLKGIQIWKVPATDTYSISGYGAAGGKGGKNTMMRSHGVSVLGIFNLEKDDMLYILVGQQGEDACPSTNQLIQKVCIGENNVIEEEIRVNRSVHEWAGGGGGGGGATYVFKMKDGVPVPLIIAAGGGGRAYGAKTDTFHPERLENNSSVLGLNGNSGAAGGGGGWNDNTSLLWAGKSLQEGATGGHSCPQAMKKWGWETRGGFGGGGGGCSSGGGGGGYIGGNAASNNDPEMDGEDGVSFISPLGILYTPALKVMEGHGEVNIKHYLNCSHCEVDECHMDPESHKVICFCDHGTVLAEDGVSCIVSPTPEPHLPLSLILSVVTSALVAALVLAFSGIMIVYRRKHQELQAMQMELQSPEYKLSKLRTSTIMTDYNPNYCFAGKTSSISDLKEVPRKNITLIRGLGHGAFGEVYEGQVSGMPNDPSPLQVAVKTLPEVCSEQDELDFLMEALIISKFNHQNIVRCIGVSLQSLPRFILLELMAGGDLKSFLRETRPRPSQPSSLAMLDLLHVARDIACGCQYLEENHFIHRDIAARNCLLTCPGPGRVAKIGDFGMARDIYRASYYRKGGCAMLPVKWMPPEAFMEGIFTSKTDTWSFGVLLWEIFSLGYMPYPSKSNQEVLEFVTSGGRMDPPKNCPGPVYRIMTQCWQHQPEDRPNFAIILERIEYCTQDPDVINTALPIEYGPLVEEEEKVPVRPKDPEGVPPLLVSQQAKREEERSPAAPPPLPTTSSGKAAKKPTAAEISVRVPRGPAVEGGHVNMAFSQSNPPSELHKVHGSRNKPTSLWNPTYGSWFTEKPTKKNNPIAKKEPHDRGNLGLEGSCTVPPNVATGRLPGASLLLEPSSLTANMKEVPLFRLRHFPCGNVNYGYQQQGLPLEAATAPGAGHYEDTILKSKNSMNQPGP

Row | IC50 (c-Kit kinase) [nM] | IC50 (EGFR) [nM] | IC50 (Flt3) [nM] | IC50 (ALK) [nM] | IC50 (Fyn) [nM] | IC50 (IRK) [nM] | IC50 (EphA2) [nM] | IC50 (FGFR1) [nM] | IC50 (PDGFR alpha) [nM] | IC50 [1] [nM] | SMILES
1 | < 50 | 50 to 500 | < 50 | 50 to 500 | < 50 | 500 to 5000 | 50 to 500 | – | – | – | CCN1CCC(Nc2ccc3c(c2)/C(=C(\c2cc(F)cc(F)c2)c2nc(C)c[nH]2)C(=O)N3)CC1 [Entry 74, (3Z)-3-[(3,5-difluorophenyl)(4-methyl-1H-imidazol-2-yl)methylidene]-5-[(1-ethylpiperidin-4-yl)amino]-1,3-dihydro-2H-indol-2-one]
2 | < 50 | 50 to 500 | – | 50 to 500 | < 50 | 500 to 5000 | 500 to 5000 | 50 to 500 | < 50 | < 50 | CCN1CCC(Nc2ccc3c(c2)/C(=C(/c2nc(C)c[nH]2)c2ccc(F)cc2F)C(=O)N3)CC1 [Entry 111, (3Z)-3-[(2,4-difluorophenyl)(4-methyl-1H-imidazol-2-yl)methylidene]-5-[(1-ethylpiperidin-4-yl)amino]-1,3-dihydro-2H-indol-2-one]
3 | – | – | – | 50 to 500 | < 50 | 500 to 5000 | 50 to 500 | < 50 | < 50 | < 50 | CCN1CCC(Nc2ccc3c(c2)/C(=C(\c2ccc(C)c(F)c2)c2ncc[nH]2)C(=O)N3)CC1 [Entry 57, (3Z)-5-[(1-ethylpiperidin-4-yl)amino]-3-[(3-fluoro-4-methylphenyl)(1H-imidazol-2-yl)methylidene]-1,3-dihydro-2H-indol-2-one]
4 | < 50 | < 50 | – | < 50 | < 50 | 50 to 500 | 500 to 5000 | < 50 | – | < 50 | CCN1CCC(Nc2ccc3c(c2)/C(=C(/c2nc(C)c[nH]2)c2ccc(Cl)cc2F)C(=O)N3)CC1 [Entry 118, (3Z)-3-[(4-chloro-2-fluorophenyl)(4-methyl-1H-imidazol-2-yl)methylidene]-5-[(1-ethylpiperidin-4-yl)amino]-1,3-dihydro-2H-indol-2-one]
5 | < 50 | 500 to 5000 | – | 50 to 500 | < 50 | > 5000 | 500 to 5000 | < 50 | < 50 | < 50 | CCN1CCC(Nc2ccc3c(c2)/C(=C(\c2ccc(F)cc2)c2ncc[nH]2)C(=O)N3)CC1 [Entry 58, (3Z)-5-[(1-ethylpiperidin-4-yl)amino]-3-[(4-fluorophenyl)(1H-imidazol-2-yl)methylidene]-1,3-dihydro-2H-indol-2-one]
6 | < 50 | 50 to 500 | < 50 | – | < 50 | 500 to 5000 | 500 to 5000 | < 50 | < 50 | < 50 | CCN1CCC(Nc2ccc3c(c2)/C(=C(/c2ncc[nH]2)c2cc(F)c(Cl)cc2Cl)C(=O)N3)CC1 [Entry 116, (3Z)-3-[(2,4-dichloro-5-fluorophenyl) (1H-imidazol-2-yl)methylidene]-5-[(1-ethylpiperidin-4-yl)amino]-1,3-dihydro-2H-indol-2-one]
7 | < 50 | 50 to 500 | – | < 50 | < 50 | 500 to 5000 | 500 to 5000 | < 50 | < 50 | < 50 | CCN1CCC(Nc2ccc3c(c2)/C(=C(\c2ccc(Cl)cc2)c2nc(C)c[nH]2)C(=O)N3)CC1 [Entry 102]
8 | – | 50 to 500 | – | < 50 | < 50 | 500 to 5000 | 50 to 500 | < 50 | < 50 | < 50 | CCN1CCC(Nc2ccc3c(c2)/C(=C(\c2ccc(C)cc2)c2nc(C)c[nH]2)C(=O)N3)CC1 [Entry 64, (3Z)-5-[(1-ethylpiperidin-4-yl)amino]-3-[(4-methyl-1H-imidazol-2-yl)(4-methylphenyl)methylidene] 1,3-dihydro-2H-indol-2-one]
9 | – | < 50 | – | < 50 | < 50 | 500 to 5000 | 50 to 500 | < 50 | < 50 | < 50 | CCN1CCC(Nc2ccc3c(c2)/C(=C(\c2ccc(C)c(F)c2)c2nc(C)c[nH]2)C(=O)N3)CC1 [Entry 67, (3Z)-5-[(1-ethylpiperidin-4-yl)amino]-3-[(3-fluoro-4-methylphenyl) (4-methyl-1H-imidazol-2-yl)methylidene]-1,3-dihydro-2H-indol-2-one]
10 | < 50 | 50 to 500 | < 50 | – | < 50 | 500 to 5000 | 500 to 5000 | < 50 | < 50 | < 50 | CCN1CCC(Nc2ccc3c(c2)/C(=C(/c2nc(C)c[nH]2)c2cc(F)c(Cl)cc2Cl)C(=O)N3)CC1 [Entry 117, (3Z)-3-[(2,4-dichloro-5-fluorophenyl)(4-methyl-1H-imidazol-2-yl)methylidene]-5-[(1-ethylpiperidin-4-yl)amino]-1,3-dihydro-2H-indol-2-one]
11 | < 50 | 50 to 500 | – | < 50 | < 50 | 500 to 5000 | 500 to 5000 | < 50 | < 50 | < 50 | CCN1CCC(Nc2ccc3c(c2)/C(=C(/c2nc(C)c[nH]2)c2cccc(F)c2F)C(=O)N3)CC1 [Entry 110, (3Z)-3-[(2,3-difluorophenyl)(4-methyl-1H-imidazol-2-yl)methylidene]-5-[(1-ethylpiperidin-4-yl)amino]-1,3-dihydro-2H-indol-2-one]
